From patent US20100221350A1, “DERMATOLOGICAL COMPOSITIONS COMPRISING VITAMIN D LIPID VESICLES” (GALDERMA S.A., priority 2007, published 2010)

Test: Preformulation stability and solubility tests of calcitriol in two excipients
Format: physicochemical
Details: 800 ppm; 4° C., ambient temperature and 40° C.; 1 month
Method: Preliminary preformulation studies were carried out to direct the choice of the lipid core (oily internal phase) of the lipid vesicles. The results of tests of stability and of solubility of calcitriol in two excipients are presented in the graphs below. The objective of these solubility and stability studies on calcitriol is to find the oil which will make possible good solubility of calcitriol for the proposals for internal phase used in this concept and good stability of calcitriol in this excipient. Calcitriol is stable at 800 ppm in Miglyol 812 (caprylic/capric triglyceride: MTC) and tocopherol acetate at the three temperatures (4° C., ambient temperature and 40° C.) for 1 month.

Stability of calcitriol in Miglyol 812 (caprylic/capric triglyceride): stable
Stability of calcitriol in tocopherol acetate: stable
SMILES: C=C1/C(=C\C=C2/CCC[C@]3(C)[C@@H]([C@H](C)CCCC(C)(C)O)CC[C@@H]23)C[C@@H](O)C[C@@H]1O [Calcitriol, calcitriol]
